Results as given in US11058688B2, “Imidazopiperazine inhibitors of transcription activating proteins” (Board of Regents, The University of Texas System, priority 2018, dated 2021).
pIC50: −log10 of the molar value.

Tests used:
[1] = target: GST-CBP(1081-1197) bromodomain (Homo sapiens (Human), UniProt Q92793); assay: CBP AlphaScreen Assay; settings: binding to biotin-H4(1-21) Ac-K5/8/12/16 peptide
How it was run: (§1)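 IC50 values derived by variable-slope dose-response fit between negative and DMSO control signals. AlphaScreen signal reports bromodomain association with an H4(1-21) peptide acetylated at K5, K8, K12 and K16.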

[2] = target: BRD4(49-170) bromodomain (Homo sapiens (Human), UniProt O60885); assay: BRD4 AlphaScreen Assay; settings: binding to biotin-H4(1-21) Ac-K5/8/12/16 peptide
How it was run: as §1

GST-CBP(1081-1197) bromodomain, sequence (Q92793 1081-1197): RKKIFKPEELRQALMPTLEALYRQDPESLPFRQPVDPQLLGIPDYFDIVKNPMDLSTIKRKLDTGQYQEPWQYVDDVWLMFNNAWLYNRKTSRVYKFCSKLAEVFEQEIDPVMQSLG

Structure (SMILES)	pIC50 [1]	pIC50 [2]
CNC(=O)N1CCn2c(C3CC(F)(F)C3)nc(-c3cccc4nc(-c5cnn(C)c5)c(C(F)F)cc34)c2C1 [Example 58, 3-(3,3-difluorocyclobutyl)-1-(3-(difluoromethyl)-2-(1-methyl-1H-pyrazol-4-yl)quinolin-5-yl)-N-methyl-5,6-dihydroimidazo[1,5-a]pyrazine-7(8H)-carboxamide]	7.31	< 5.00
CC(=O)N1CCn2c(N3CCOCC3)nc(-c3ccc4c(c3)c(-c3cnn(C)c3)nn4C)c2C1 [Example 16, 1-(1-(1-Methyl-3-(1-methyl-1H-pyrazol-4-yl)-1H-indazol-5-yl)-3-morpho-lino-5,6-dihydroimidazo[1,5-a]pyrazin-7(8H)-yl)ethanone]	6.41	< 4.60
CNC(=O)N1CCn2c(C3CC3)nc(-c3cccc4nc(-c5cnn(C)c5)c(C(F)F)cc34)c2C1 [Example 34, 3-Cyclopropyl-1-(3-(difluoromethyl)-2-(1-methyl-1H-pyrazol-4-yl)quinolin-5-yl)-N-methyl-5,6-dihydroimidazo[1,5-a]pyrazine-7(8H)-carboxamide]	7.43	4.76
CNC(=O)N1CCn2c(C3CCNCC3)nc(-c3ccc4c(c3)c(-c3cnn(C)c3)nn4C)c2C1 [Example 52, N-methyl-1-(1-methyl-3-(1-methyl-1H-pyrazol-4-yl)-1H-indazol-5-yl)-3-(piperidin-4-yl)-5,6-dihydroimidazo[1,5-a]pyrazine-7(8H)-carboxamide]	7.70	< 5.00
CC(=O)N1CCn2c(C3CCOC3)nc(-c3ccc4c(c3)c(-c3cnn(C)c3)nn4C)c2C1 (stereo not drawn) [Example 45, 1-(1-(1-methyl-3-(1-methyl-1H-pyrazol-4-yl)-1H-indazol-5-yl)-3-(tetrahydrofuran-3-yl)-5,6-dihydroimidazo[1,5-a]pyrazin-7(8H)-yl)ethan-1-one]	6.91	5.20
COc1ccc(-c2nc(C3CC3)n3c2CN(C(C)=O)CC3)cc1OC [Example 42, 1-(3-cyclopropyl-1-(3,4-dimethoxyphenyl)-5,6-dihydroimidazo[1,5-a]pyrazin-7(8H)-yl)ethan-1-one]	5.37	< 4.60
CNC(=O)N1CCn2c(C3CCOCC3)nc(-c3cccc4cc(N5CCOCC5)ncc34)c2C1 [Example 63, N-methyl-1-(3-morpholinoisoquinolin-8-yl)-3-(tetrahydro-2H-pyran-4-yl)-5,6-dihydroimidazo[1,5-a]pyrazine-7(8H)-carboxamide]	7.85	4.63
CNC(=O)N1CCn2c(C3CC3)nc(-c3c(F)ccc4cc(C5CCOCC5)ncc34)c2C1 [Example 75, 3-cyclopropyl-1-(7-fluoro-3-(tetrahydro-2H-pyran-4-yl)isoquinolin-8-yl)-N-methyl-5,6-dihydroimidazo[1,5-a]pyrazine-7(8H)-carboxamide]	7.66	< 4.60
CC(=O)N1CCn2c(C3CC3)nc(-c3ccc4c(c3)c(-c3c(C)noc3C)nn4C)c2C1 [Example 30, 1-(3-Cyclopropyl-1-(3-(3,5-dimethylisoxazol-4-yl)-1-methyl-1H-indazol-5-yl)-5,6-dihydroimidazo[1,5-a]pyrazin-7(8H)-yl)ethan-1-one]	5.93	< 4.60
CNC(=O)N1CCn2c(C3CCOC3)nc(-c3ccc4c(c3)c(-c3cnn(C)c3)nn4C)c2C1 (stereo not drawn) [Example 6, N-Methyl-1-(1-methyl-3-(1-methyl-1H-pyrazol-4-yl)-1H-indazol-5-yl)-3-(tetrahydrofuran-3-yl)-5,6-dihydroimidazo[1,5-a]pyrazine-7(8H)-carboxamide]	7.62	5.09
CNC(=O)N1CCn2c(C3CC3)nc(-c3cccc4nc(-c5cnn(C)c5)c(C#N)cc34)c2C1 [Example 19, 1-(3-Cyano-2-(1-methyl-1H-pyrazol-4-yl)quinolin-5-yl)-3-cyclopropyl-N-methyl-5,6-dihydroimidazo[1,5-a]pyrazine-7(8H)-carboxamide]	8.30	< 4.60
CNC(=O)N1CCn2c(C3CC3)nc(-c3ccnc4cc(-c5cnn(C)c5)c(OC(F)(F)F)cc34)c2C1 [Example 2, 3-cyclopropyl-N-methyl-1-(7-(1-methyl-1H-pyrazol-4-yl)-6-(trifluoromethoxy)quinolin-4-yl)-5,6-dihydroimidazo[1,5-a]pyrazine-7(8H)-carboxamide]	8.52	5.05
CNC(=O)c1ccc(-c2cc3cccc(-c4nc(C5CCOCC5)n5c4CN(C(=O)NC)CC5)c3cn2)cn1 [Example 57, N-methyl-1-(3-(6-(methylcarbamoyl)pyridin-3-yl)isoquinolin-8-yl)-3-(tetrahydro-2H-pyran-4-yl)-5,6-dihydroimidazo[1,5-a]pyrazine-7(8H)-carboxamide]	9.00	5.22
CNC(=O)N1CCn2c(C3CCOCC3)nc(-c3cccc4cc(-c5cn(C)nc5C)ncc34)c2C1 [Example 70, 1-(3-(1,3-dimethyl-1H-pyrazol-4-yl)isoquinolin-8-yl)-N-methyl-3-(tetrahydro-2H-pyran-4-yl)-5,6-dihydroimidazo[1,5-a]pyrazine-7(8H)-carboxamide]	7.92	4.91
CNC(=O)N1CCn2c(C3CCC(F)(F)CC3)nc(-c3cccc4cc(N5CCOCC5)ncc34)c2C1 [Example 74, 3-(4,4-difluorocyclohexyl)-N-methyl-1(3-morpholinoisoquinolin-8-yl)-5,6-dihydroimidazo[1,5-a]pyrazine-7(8H)-carboxamide]	8.40	< 4.60
CNC(=O)N1CCn2c(C3CCN(C(C)=O)CC3)nc(-c3ccc4c(c3)c(-c3cnn(C)c3)nn4C)c2C1 [Example 55, 3-(1-acetylpiperidin-4-yl)-N-methyl-1-(1-methyl-3-(1-methyl-1H-pyrazol-4-yl)-1H-indazol-5-yl)-5,6-dihydroimidazo[1,5-a]pyrazine-7(8H)-carboxamide]	7.74	< 5.00
CC(=O)N1CCn2c(C3CC3)nc(-c3cc4c(-c5cnn(C)c5)nn(C)c4cc3F)c2C1 [Example 28, 1-(3-Cyclopropyl-1-(6-fluoro-1-methyl-3-(1-methyl-1H-pyrazol-4-yl)-1H-indazol-5-yl)-5,6-dihydroimidazo[1,5-a]pyrazin-7(8H)-yl)ethan-1-one]	7.48	4.73
CC(=O)N1CCn2c(C3CC3)nc(-c3ccc4c(c(-c5cnn(C)c5)nn4C)c3F)c2C1 [Example 25, 1-(3-cyclopropyl-1-(4-fluoro-1-methyl-3-(1-methyl-1H-pyrazol-4-yl)-1H-indazol-5-yl)-5,6-dihydroimidazo[1,5-a]pyrazin-7(8H)-yl)ethan-1-one]	7.24	4.80

The next lines start with the values.

pIC50 [1]	pIC50 [2]	Structure (SMILES)
7.32	4.65	CNC(=O)N1CCn2c(C3CC(F)(F)C3)nc(-c3c(F)ccc4cc(C5CCOCC5)ncc34)c2C1 [Example 91, 3-(3,3-difluorocyclobutyl)-1-(7-fluoro-3-(tetrahydro-2H-pyran-4-yl)isoquinolin-8-yl)-N-methyl-5,6-dihydroimidazo[1,5-a]pyrazine-7(8H)-carboxamide]
7.60	5.02	CNC(=O)N1CCn2c(C3CC3)nc(-c3cccc4nc(-c5cn(C)nc5C)c(C#N)cc34)c2C1 [Example 98, 1-(3-cyano-2-(1,3-dimethyl-1H-pyrazol-4-yl)quinolin-5-yl)-3-cyclopropyl-N-methyl-5,6-dihydroimidazo[1,5-a]pyrazine-7(8H)-carboxamide]
7.82	5.12	CNC(=O)N1CCn2c(C3CC3)nc(-c3ccc4c(c3)c(-c3cnn(C)c3)nn4C)c2C1 [Example 105, 3-cyclopropyl-N-methyl-1-(1-methyl-3-(1-methyl-1H-pyrazol-4-yl)-1H-indazol-5-yl)-5,6-dihydroimidazo[1,5-a]pyrazine-7(8H)-carboxamide]
7.80	4.71	CNC(=O)N1CCn2c(C3CCOCC3)nc(-c3c(F)ccc4cc(C5CCOCC5)ncc34)c2C1 [Example 83, 1-(7-fluoro-3-(tetrahydro-2H-pyran-4-yl)isoquinolin-8-yl)-N-methyl-3-(tetrahydro-2H-pyran-4-yl)-5,6-dihydroimidazo[1,5-a]pyrazine-7(8H)-carboxamide]
6.45	< 4.60	CC(=O)N1CCn2c(C3CC3)nc(N3CCCc4cc(-c5cccc(S(N)(=O)=O)c5)ccc43)c2C1 [Example 120, 3-(1-(7-acetyl-3-cyclopropyl-5,6,7,8-tetrahydroimidazo[1,5-a]pyrazin-1-yl)-1,2,3,4-tetrahydroquinolin-6-yl)benzenesulfonamide]
6.83	< 4.60	CC(=O)N1CCn2c(C3CCOC3)nc(-c3cc4c(-c5cnn(C)c5)nn(C)c4cc3F)c2C1 (stereo not drawn) [Example 103, 1-(1-(6-fluoro-1-methyl-3-(1-methyl-1H-pyrazol-4-yl)-1H-indazol-5-yl)-3-(tetrahydrofuran-3-yl)-5,6-dihydroimidazo[1,5-a]pyrazin-7(8H)-yl)ethan-1-one]
8.40	4.92	CNC(=O)N1CCn2c(C3CCC(F)(F)CC3)nc(-c3cccc4cc(C5CCOCC5)ncc34)c2C1 [Example 84, 3-(4,4-difluorocyclohexyl)-N-methyl-1-(3-(tetrahydro-2H-pyran-4-yl)isoquinolin-8-yl)-5,6-dihydroimidazo[1,5-a]pyrazine-7(8H)-carboxamide]
7.41	4.77	CNC(=O)N1Cc2c(-c3cccc4cc(-c5cnn(C)c5)ncc34)nc(C3CC3)n2C(C)C1 (stereo not drawn) [Example 126, 3-cyclopropyl-N,5-dimethyl-1-(3-(1-methyl-1H-pyrazol-4-yl)isoquinolin-8-yl)-5,6-dihydroimidazo[1,5-a]pyrazine-7(8H)-carboxamide]
8.52	4.75	CNC(=O)N1CCn2c(C3CCC(F)(F)CC3)nc(-c3cccc4nc(-c5cnn(C)c5)c(C#N)cc34)c2C1 [Example 82, 1-(3-cyano-2-(1-methyl-1H-pyrazol-4-yl)quinolin-5-yl)-3-(4,4-difluorocyclohexyl)-N-methyl-5,6-dihydroimidazo[1,5-a]pyrazine-7(8H)-carboxamide]
